Experimental data published in PubChem BioAssay (NCI).
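Test compounds were applied to cells in 96-well plates for 48 hours at 5 doses. The concentration for 50% growth inhibition is given as GI50. TGI: concentration producing complete growth inhibition.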

Key:
Test in all cases: NCI tumour cell line growth inhibition, 48 h
OVCAR-8 ovarian = system: OVCAR-8 ovarian
MOLT-4 leukemia = system: MOLT-4 leukemia
OVCAR-5 ovarian = system: OVCAR-5 ovarian
COLO 205 colon = system: COLO 205 colon
DLD-1 colon = system: DLD-1 colon
SK-OV-3 ovarian = system: SK-OV-3 ovarian
UO-31 renal = system: UO-31 renal
HOP-18 NSCLC = system: HOP-18 NSCLC
CCRF-CEM leukemia = system: CCRF-CEM leukemia
NCI/ADR-RES ovarian = system: NCI/ADR-RES ovarian

## CC1OC(n2cc(C(F)(F)F)c(=O)[nH]c2=O)C=CC1=O (stereo not given)
OVCAR-8 ovarian
  TGI: 80 µM
MOLT-4 leukemia
  TGI: 57.2 µM
OVCAR-5 ovarian
  TGI: 33.5 µM
COLO 205 colon
  TGI: 35.2 µM
DLD-1 colon
  TGI: 38.2 µM
SK-OV-3 ovarian
  TGI: 44.9 µM
UO-31 renal
  TGI: 33 µM

## COC(=O)C1=CC2C(=O)OC1C1C(=O)NC(=O)C21 (stereo not given)
OVCAR-8 ovarian
  TGI: > 100 µM
MOLT-4 leukemia
  TGI: > 100 µM
COLO 205 colon
  TGI: > 100 µM
DLD-1 colon
  TGI: > 100 µM
SK-OV-3 ovarian
  TGI: > 100 µM
HOP-18 NSCLC
  TGI: > 100 µM
UO-31 renal
  TGI: > 100 µM
CCRF-CEM leukemia
  TGI: > 100 µM

## C[C@]12CC[C@H](O[C@@H]3O[C@H](CO[C@@H]4O[C@H](CO)[C@@H](O)[C@H](O)[C@H]4O)[C@@H](O)[C@H](O)[C@H]3O)C[C@@H]1CC[C@@H]1[C@@H]2CC[C@]2(C)[C@@H](C3=CC(=O)OC3)CC[C@]12O
OVCAR-8 ovarian
  TGI: 96.9 µM
MOLT-4 leukemia
  TGI: > 41 µM
NCI/ADR-RES ovarian
  TGI: 39.3 µM
OVCAR-5 ovarian
  TGI: > 76.6 µM
COLO 205 colon
  TGI: > 76.9 µM
SK-OV-3 ovarian
  TGI: > 72.6 µM
UO-31 renal
  TGI: > 66.5 µM
CCRF-CEM leukemia
  TGI: > 100 µM

## Cc1ccc(N)cc1[As]=[As]c1cc(N)ccc1C (stereo not given)
OVCAR-8 ovarian
  GI50: 1.57 µM
  TGI: 2.98 µM
MOLT-4 leukemia
  GI50: 1.94 µM
  TGI: 8.82 µM
NCI/ADR-RES ovarian
  GI50: 3.19 µM
  TGI: > 100 µM
OVCAR-5 ovarian
  GI50: 2.07 µM
  TGI: 3.73 µM
COLO 205 colon
  GI50: 1.33 µM
  TGI: 2.77 µM
SK-OV-3 ovarian
  GI50: 3.59 µM
  TGI: 9.43 µM
UO-31 renal
  GI50: 1.57 µM
  TGI: 3.03 µM
CCRF-CEM leukemia
  GI50: 0.298 µM
  TGI: 2.36 µM

## CC1=CC(=O)N(c2cccc3c(N4C(=O)C=C(C)C4=O)cccc23)C1=O
OVCAR-8 ovarian
  GI50: 3.36 µM
  TGI: 16.5 µM
MOLT-4 leukemia
  GI50: 3.29 µM
  TGI: 11.1 µM
NCI/ADR-RES ovarian
  GI50: 10.4 µM
  TGI: > 89 µM
OVCAR-5 ovarian
  GI50: 8.35 µM
  TGI: 26.3 µM
COLO 205 colon
  GI50: 0.988 µM
  TGI: 2.65 µM
SK-OV-3 ovarian
  GI50: 53 µM
  TGI: > 100 µM
UO-31 renal
  GI50: 1.78 µM
  TGI: 4.44 µM
CCRF-CEM leukemia
  GI50: 1.52 µM
  TGI: 11.1 µM

## COc1ccc(Oc2nc3cc(N)cc(N)c3nc2-c2ccccc2)cc1
OVCAR-8 ovarian
  GI50: 32.3 µM
  TGI: > 100 µM
MOLT-4 leukemia
  GI50: 5.31 µM
  TGI: 93.9 µM
NCI/ADR-RES ovarian
  GI50: 59.9 µM
  TGI: > 100 µM
OVCAR-5 ovarian
  GI50: 94.5 µM
  TGI: > 100 µM
COLO 205 colon
  GI50: > 100 µM
  TGI: > 100 µM
SK-OV-3 ovarian
  GI50: 25.5 µM
  TGI: 55 µM
UO-31 renal
  GI50: 28.5 µM
  TGI: > 100 µM
CCRF-CEM leukemia
  GI50: 2.97 µM
  TGI: 12.6 µM

## Cc1sc(C(=O)c2cncnc2N[C@@H]2C[C@H](COS(N)(=O)=O)[C@@H](O)C2)cc1[C@@H]1NCCc2ccc(Cl)cc21
OVCAR-8 ovarian
  GI50: 11.7 µM
  TGI: 58.7 µM
MOLT-4 leukemia
  GI50: 0.59 µM
  TGI: 23.4 µM
NCI/ADR-RES ovarian
  GI50: 51.8 µM
  TGI: > 100 µM
OVCAR-5 ovarian
  GI50: 9.43 µM
  TGI: 23.6 µM
COLO 205 colon
  GI50: 0.041 µM
  TGI: 11.8 µM
SK-OV-3 ovarian
  GI50: 2.65 µM
  TGI: 25.2 µM
UO-31 renal
  GI50: 3.66 µM
  TGI: 24.6 µM
CCRF-CEM leukemia
  GI50: 0.0801 µM
  TGI: 20.1 µM

## Cn1ncc(C#N)c1-c1ccc2c(c1)CN([C@H](CN)Cc1cccc(F)c1)C2=O
OVCAR-8 ovarian
  GI50: 47.7 µM
  TGI: > 100 µM
MOLT-4 leukemia
  GI50: 0.413 µM
  TGI: 27.4 µM
NCI/ADR-RES ovarian
  GI50: > 100 µM
  TGI: > 100 µM
OVCAR-5 ovarian
  GI50: 18.6 µM
  TGI: > 100 µM
COLO 205 colon
  GI50: 1.85 µM
  TGI: 21 µM
SK-OV-3 ovarian
  GI50: 0.255 µM
  TGI: 13.2 µM
UO-31 renal
  GI50: 3.43 µM
  TGI: 42.5 µM
CCRF-CEM leukemia
  GI50: 0.932 µM
  TGI: > 100 µM

## c1ccc(-c2[nH]ncc2-c2ccnc(-c3ccc(OCCN4CCOCC4)cc3)c2)nc1
OVCAR-8 ovarian
  GI50: > 25 µM
  TGI: > 25 µM
MOLT-4 leukemia
  GI50: > 25 µM
  TGI: > 25 µM
NCI/ADR-RES ovarian
  GI50: > 25 µM
  TGI: > 25 µM
OVCAR-5 ovarian
  GI50: > 25 µM
  TGI: > 25 µM
COLO 205 colon
  GI50: > 25 µM
  TGI: > 25 µM
SK-OV-3 ovarian
  GI50: > 25 µM
  TGI: > 25 µM
UO-31 renal
  GI50: 24.3 µM
  TGI: > 25 µM
CCRF-CEM leukemia
  GI50: > 25 µM
  TGI: > 25 µM

## C=C1C(=O)O[C@H]2[C@H]1CC/C(COC(=O)c1cccnc1N)=C\CC[C@@]1(C)O[C@@H]21
OVCAR-8 ovarian
  GI50: 4.2 µM
  TGI: 16.3 µM
MOLT-4 leukemia
  GI50: 0.65 µM
  TGI: 6.46 µM
NCI/ADR-RES ovarian
  GI50: 4.56 µM
  TGI: 39.9 µM
OVCAR-5 ovarian
  GI50: 6.95 µM
  TGI: 21.7 µM
COLO 205 colon
  GI50: 1.77 µM
  TGI: 3.68 µM
SK-OV-3 ovarian
  GI50: 12.2 µM
  TGI: 73 µM
UO-31 renal
  GI50: 2.17 µM
  TGI: 10.2 µM
CCRF-CEM leukemia
  GI50: 0.345 µM
  TGI: 2.47 µM

## Cc1ccc(/C=N/NC(=O)c2ccccc2Oc2ccccc2)o1
OVCAR-8 ovarian
  GI50: 39 µM
  TGI: > 100 µM
MOLT-4 leukemia
  GI50: 22.8 µM
  TGI: 66.5 µM
NCI/ADR-RES ovarian
  GI50: 25.9 µM
  TGI: > 100 µM
OVCAR-5 ovarian
  GI50: > 93 µM
  TGI: > 100 µM
COLO 205 colon
  GI50: 61.3 µM
  TGI: > 100 µM
SK-OV-3 ovarian
  GI50: 77.6 µM
  TGI: > 100 µM
UO-31 renal
  GI50: 44.8 µM
  TGI: > 100 µM
CCRF-CEM leukemia
  GI50: 30.9 µM
  TGI: > 100 µM

## CN1CCN(CCCNC(=O)c2c3c(n4ccccc24)C(=O)c2ncccc2C3=O)CC1
OVCAR-8 ovarian
  GI50: 0.888 µM
  TGI: 5.99 µM
MOLT-4 leukemia
  GI50: 2.13 µM
  TGI: 4.87 µM
NCI/ADR-RES ovarian
  GI50: 12 µM
  TGI: 64.6 µM
OVCAR-5 ovarian
  GI50: 2.42 µM
  TGI: > 53.2 µM
COLO 205 colon
  GI50: 0.563 µM
  TGI: 1.67 µM
SK-OV-3 ovarian
  GI50: 3.46 µM
  TGI: 19.6 µM
UO-31 renal
  GI50: 1.81 µM
  TGI: 30.7 µM
CCRF-CEM leukemia
  GI50: 2.16 µM
  TGI: > 27.8 µM

## N#C/C(=C\c1c(O)cc(O)cc1O)C(N)=O
OVCAR-8 ovarian
  TGI: > 100 µM
MOLT-4 leukemia
  TGI: > 100 µM
OVCAR-5 ovarian
  TGI: > 100 µM
COLO 205 colon
  TGI: > 100 µM
DLD-1 colon
  TGI: > 100 µM
SK-OV-3 ovarian
  TGI: > 100 µM
UO-31 renal
  TGI: > 100 µM
CCRF-CEM leukemia
  TGI: > 100 µM

## CCN1CCN(c2nc(C)cc(NCc3cc(Nc4ccnc5cc(Cl)ccc45)ccc3F)n2)CC1
OVCAR-8 ovarian
  GI50: 3.2 µM
  TGI: 13.7 µM
MOLT-4 leukemia
  GI50: 2.44 µM
  TGI: 16.6 µM
NCI/ADR-RES ovarian
  GI50: 3.07 µM
  TGI: 15.1 µM
OVCAR-5 ovarian
  GI50: 2.2 µM
  TGI: 6.71 µM
COLO 205 colon
  GI50: 1.77 µM
  TGI: 3.95 µM
SK-OV-3 ovarian
  GI50: 4.14 µM
  TGI: 15 µM
UO-31 renal
  GI50: 1.31 µM
  TGI: 2.99 µM
CCRF-CEM leukemia
  GI50: 2.06 µM
  TGI: 15.2 µM

## COc1cc(C(=O)/C=C/c2cc(-c3ccc4c(c3)OCO4)n[nH]2)cc(OC)c1OC
OVCAR-8 ovarian
  GI50: 2.35 µM
  TGI: 6.37 µM
MOLT-4 leukemia
  GI50: 2.71 µM
  TGI: 8.36 µM
NCI/ADR-RES ovarian
  GI50: 2.99 µM
  TGI: 12.3 µM
OVCAR-5 ovarian
  GI50: 2.63 µM
  TGI: 9.6 µM
COLO 205 colon
  GI50: 2.08 µM
  TGI: 4.66 µM
SK-OV-3 ovarian
  GI50: 4.44 µM
  TGI: 14.6 µM
UO-31 renal
  GI50: 1.34 µM
  TGI: 2.67 µM
CCRF-CEM leukemia
  GI50: 2 µM
  TGI: 5.74 µM

## O/N=C(\CC(O)(C(F)(F)F)C(F)(F)F)c1cccs1
OVCAR-8 ovarian
  TGI: > 10 µM
MOLT-4 leukemia
  TGI: > 10 µM
NCI/ADR-RES ovarian
  TGI: > 10 µM
OVCAR-5 ovarian
  TGI: > 10 µM
COLO 205 colon
  TGI: > 10 µM
SK-OV-3 ovarian
  TGI: > 10 µM
UO-31 renal
  TGI: > 10 µM
CCRF-CEM leukemia
  TGI: > 10 µM
